From ChEMBL document CHEMBL1145224, “Novel 1beta-methylcarbapenems with isoxazoloethenyl moieties containing carboxylic acid sodium salt” (Bioorg Med Chem Lett, 2005)
Converted amounts (≈) assume the structure as drawn.

Key:
Escherichia coli [1] = test: Minimum inhibitory concentration against Escherichia coli 1507 E strain; assay type: functional
Salmonella typhimurium = test: Minimum inhibitory concentration against Salmonella Typhimurium; assay type: functional, Salmonella enterica subsp. enterica serovar Typhimurium; conditions: Salmonella enterica
Escherichia coli [2] = test: Minimum inhibitory concentration against Escherichia coli 078 strain; assay type: functional
Enterobacter cloacae = test: Minimum inhibitory concentration against Enterobacter cloacae 1321E strain; assay type: functional
Klebsiella aerogenes = test: Minimum inhibitory concentration against Klebsiella aerogenes 1522E strain; assay type: functional
Streptococcus pyogenes = test: Minimum inhibitory concentration against Streptococcus pyogenes 308A strain; assay type: functional
Pseudomonas aeruginosa [3] = test: Minimum inhibitory concentration against was determined against Pseudomonas aeruginosa 9027 strain; assay type: functional
Pseudomonas aeruginosa [4] = test: Minimum inhibitory concentration against Pseudomonas aeruginosa 1592E strain; assay type: functional
Pseudomonas aeruginosa [5] = test: Minimum inhibitory concentration against Pseudomonas aeruginosa 1771M strain; assay type: functional
Staphylococcus aureus [6] = test: Minimum inhibitory concentration against […] 285 strain; assay type: functional
Pseudomonas aeruginosa [7] = test: Minimum inhibitory concentration against Pseudomonas aeruginosa (n=60); (Range=0.06-128); assay type: functional
Klebsiella pneumoniae [8] = test: Minimum inhibitory concentration against Klebsiella pneumoniae (n=30); (Range = 0.015-0.06); assay type: functional
Moraxella catarrhalis [9] = test: Minimum inhibitory concentration against Moraxella catarrhalis (n=22); (Range=0.008-0.03); assay type: functional
Streptococcus pneumoniae [10] = test: Minimum inhibitory concentration against Streptococcus pneumoniae (n=22); (Range = 0.008-0.5); assay type: functional
[11] = Clearance value at a single intravenous administration of 5 mg/kg in dog; assay type: ADME, organism-based, Canis lupus familiaris; design: dose 5 mg/kg, route intravenous; conditions: in vivo
[12] = Clearance value at a single intravenous administration of 20 mg/kg in rat; assay type: ADME, organism-based; design: dose 20 mg/kg, route intravenous; conditions: in vivo
[13] = Area under concentration time at a single intravenous administration of 5 mg/kg in dog; assay type: ADME, organism-based, Canis lupus familiaris; design: dose 5 mg/kg, route intravenous; conditions: in vivo
[14] = Area under concentration time at a single intravenous administration of 20 mg/kg in rat; assay type: ADME, organism-based; design: dose 20 mg/kg, route intravenous; conditions: in vivo
Klebsiella pneumoniae [15] = test: Minimum inhibitory concentration against Klebsiella pneumoniae (n=30); (Range = […]); assay type: functional
Moraxella catarrhalis [16] = test: Minimum inhibitory concentration against Moraxella catarrhalis (n=22); (Range=0.008-0.12); assay type: functional
Pseudomonas aeruginosa [17] = test: Minimum inhibitory concentration against Pseudomonas aeruginosa (n=60); (Range=1-128); assay type: functional
Klebsiella pneumoniae [18] = test: Minimum inhibitory concentration against Klebsiella pneumoniae (n=30); (Range=0.008-1); assay type: functional
Moraxella catarrhalis [19] = test: Minimum inhibitory concentration against Moraxella catarrhalis (n=22); (Range = 0.008-0.12); assay type: functional
Streptococcus pneumoniae [20] = test: Minimum inhibitory concentration against Streptococcus pneumoniae (n=22); (Range=0.008-1); assay type: functional
Klebsiella pneumoniae [21] = test: Minimum inhibitory concentration against Klebsiella pneumoniae (n=30); (Range=[…]); assay type: functional
Staphylococcus aureus [22] = test: Minimum inhibitory concentration against […] 503 strain; assay type: functional
Klebsiella pneumoniae [23] = test: Minimum inhibitory concentration against Klebsiella pneumoniae (n=30); (Range=0.06-1); assay type: functional
Pseudomonas aeruginosa [24] = test: Minimum inhibitory concentration against Pseudomonas aeruginosa (n=60); (Range=0.5-128); assay type: functional
Moraxella catarrhalis [25] = test: Minimum inhibitory concentration against Moraxella catarrhalis (n=22); (Range=0.008-0.25); assay type: functional
Pseudomonas aeruginosa [26] = test: microbe, parasite or virus in culture
Moraxella catarrhalis [27] = test: microbe, parasite or virus in culture
Streptococcus pneumoniae [28] = test: Minimum inhibitory concentration against Streptococcus pneumoniae (n=22); (Range = 0.008-0.25); assay type: functional
Klebsiella pneumoniae [29] = test: Minimum inhibitory concentration against Klebsiella pneumoniae (n=30); (Range = 0.015-0.25); assay type: functional
Moraxella catarrhalis [30] = test: Minimum inhibitory concentration against Moraxella catarrhalis (n=22); (Range=0.015-0.06); assay type: functional
Streptococcus pneumoniae [31] = test: Minimum inhibitory concentration of the compound was determined against Streptococcus pneumoniae (n=22);(Range = 0.008-0.25); assay type: functional
[32] = Half life at a single intravenous administration of 5 mg/kg in dog; assay type: ADME, organism-based, Canis lupus familiaris; design: dose 5 mg/kg, route intravenous; conditions: in vivo
[33] = Half life at a single intravenous administration of 20 mg/kg in rat; assay type: ADME, organism-based; design: dose 20 mg/kg, route intravenous; conditions: in vivo
Moraxella catarrhalis [34] = test: Minimum inhibitory concentration against Moraxella catarrhalis (n=22); (Range=0.008-0.6); assay type: functional
Klebsiella pneumoniae [35] = test: Minimum inhibitory concentration against Klebsiella pneumoniae (n=30); (Range = 0.03-0.25); assay type: functional
Moraxella catarrhalis [36] = test: Minimum inhibitory concentration against Moraxella catarrhalis (n=22); (Range=0.008-0.06); assay type: functional
Pseudomonas aeruginosa [37] = test: Minimum inhibitory concentration against Pseudomonas aeruginosa (n=60); (Range=0.025-128); assay type: functional

Row | Structure (SMILES) | MIC (Escherichia coli [1]) [µg/mL] | MIC (Salmonella typhimurium) [µg/mL] | MIC (Escherichia coli [2]) [µg/mL] | MIC (Enterobacter cloacae) [µg/mL] | MIC (Klebsiella aerogenes) [µg/mL] | MIC (Streptococcus pyogenes) [µg/mL] | MIC (Pseudomonas aeruginosa [3]) [µg/mL] | MIC (Pseudomonas aeruginosa [4]) [µg/mL] | MIC (Pseudomonas aeruginosa [5]) [µg/mL] | MIC (Staphylococcus aureus [6]) [µg/mL] | MIC50 (Pseudomonas aeruginosa [7]) [µg/mL] | MIC90 (Pseudomonas aeruginosa [7]) [µg/mL] | MIC50 (Streptococcus pneumoniae [10]) [µg/mL] | MIC90 (Streptococcus pneumoniae [10]) [µg/mL] | clearance [11] [mL/min/kg] | clearance [12] [mL/min/kg] | AUC [13] [ng·h/mL] | AUC [14] [ng·h/mL] | MIC (Staphylococcus aureus [22]) [µg/mL] | MIC90 (Streptococcus pneumoniae [28]) [µg/mL] | further results
1 | C[C@@H](O)[C@H]1C(=O)N2C(C(=O)O)=C(S[C@@H]3CN[C@H](C(=O)N(C)C)C3)[C@H](C)[C@H]12 [MEROPENEM] | 0.025 (≈ 0.0652 µM) | 0.049 (≈ 0.128 µM) | 0.025 (≈ 0.0652 µM) | 0.025 (≈ 0.0652 µM) | 0.049 (≈ 0.128 µM) | 0.013 (≈ 0.0339 µM) | 0.195 (≈ 0.509 µM) | 0.195 (≈ 0.509 µM) | 0.049 (≈ 0.128 µM) | 0.195 (≈ 0.509 µM) | 2 (≈ 5.22 µM) | 16 (≈ 41.7 µM) | 0.5 (≈ 1.3 µM) | 0.5 (≈ 1.3 µM) | 7 | 52 | 11600 | 6380 |  |  | MIC50 (Klebsiella pneumoniae [8]): 0.03 µg/mL (≈ 0.0782 µM); MIC90 (Klebsiella pneumoniae [8]): 0.06 µg/mL (≈ 0.156 µM); MIC50 (Moraxella catarrhalis [9]): 0.008 µg/mL (≈ 0.0209 µM); MIC90 (Moraxella catarrhalis [9]): 0.008 µg/mL (≈ 0.0209 µM)
2 | C[C@@H](O)[C@H]1C(=O)N2C(C(=O)O)=C(S[C@@H]3CN[C@H](C(=O)Nc4cccc(C(=O)O)c4)C3)[C@H](C)[C@H]12 [ERTAPENEM] |  |  |  |  |  |  |  |  |  |  |  |  |  |  |  |  |  |  |  |  | MIC90 (Klebsiella pneumoniae [15]): 0.5 µg/mL (≈ 1.05 µM); MIC90 (Moraxella catarrhalis [16]): 0.03 µg/mL (≈ 0.0631 µM); MIC50 (Pseudomonas aeruginosa [17]): 32 µg/mL (≈ 67.3 µM); MIC90 (Pseudomonas aeruginosa [17]): 128 µg/mL (≈ 269 µM); MIC50 (Klebsiella pneumoniae [18]): 0.03 µg/mL (≈ 0.0631 µM); MIC50 (Moraxella catarrhalis [19]): 0.015 µg/mL (≈ 0.0315 µM); MIC50 (Streptococcus pneumoniae [20]): 0.5 µg/mL (≈ 1.05 µM); MIC90 (Streptococcus pneumoniae [20]): 1 µg/mL (≈ 2.1 µM)
3 | C[C@@H](O)[C@H]1C(=O)N2C(C(=O)O)=C(SCCNC=N)C[C@H]12 [IMIPENEM ANHYDROUS] | 0.098 (≈ 0.327 µM) | 0.781 (≈ 2.61 µM) | 0.098 (≈ 0.327 µM) | 0.098 (≈ 0.327 µM) | 0.195 (≈ 0.651 µM) | 0.004 (≈ 0.0134 µM) | 0.391 (≈ 1.31 µM) | 0.781 (≈ 2.61 µM) | 0.195 (≈ 0.651 µM) | 0.013 (≈ 0.0434 µM) |  |  | 0.12 (≈ 0.401 µM) | 0.25 (≈ 0.835 µM) |  |  |  |  | 0.098 (≈ 0.327 µM) |  | MIC90 (Klebsiella pneumoniae [21]): 0.5 µg/mL (≈ 1.67 µM); MIC50 (Klebsiella pneumoniae [23]): 0.12 µg/mL (≈ 0.401 µM); MIC50 (Pseudomonas aeruginosa [24]): 2 µg/mL (≈ 6.68 µM); MIC50 (Moraxella catarrhalis [25]): 0.06 µg/mL (≈ 0.2 µM); MIC90 (Pseudomonas aeruginosa [26]): 16 µg/mL (≈ 53.4 µM); MIC90 (Moraxella catarrhalis [27]): 0.06 µg/mL (≈ 0.2 µM)
4 | C[C@@H](O)[C@H]1C(=O)N2C(C(=O)O)=C(S[C@@H]3CN[C@H](/C=C/c4cc(C(=O)[O-])on4)C3)[C@H](C)[C@H]12.[Na+] | 0.025 | 0.049 | 0.025 | 0.025 | 0.049 | 0.007 | 0.195 | 0.391 | 1.56 | 0.195 |  |  |  |  |  |  |  |  | 0.098 |  | 
5 | C[C@@H](O)[C@H]1C(=O)N2C(C(=O)O)=C(S[C@@H]3CN[C@H](/C=C/c4cc(C(=O)[O-])no4)C3)[C@H](C)[C@H]12.[Na+] | 0.025 | 0.049 | 0.013 | 0.025 | 0.049 | 0.049 | 0.195 | 0.195 | 0.049 | 0.195 | 4 | 64 |  |  | 6 | 13 | 14400 | 25300 | 0.195 | 0.12 | MIC50 (Klebsiella pneumoniae [29]): 0.03 µg/mL; MIC90 (Klebsiella pneumoniae [29]): 0.12 µg/mL; MIC50 (Moraxella catarrhalis [30]): 0.03 µg/mL; MIC90 (Moraxella catarrhalis [30]): 0.06 µg/mL; MIC50 (Streptococcus pneumoniae [31]): 0.008 µg/mL; half-life [32]: 41 min; half-life [33]: 12 min
6 | CC1C(S[C@@H]2CN[C@H](/C=C/c3ccno3)C2)=C(C(=O)O)N2C(=O)[C@H]([C@@H](C)O)[C@@H]12 (single isomer, unassigned) | 0.025 (≈ 0.0617 µM) | 0.049 (≈ 0.121 µM) | 0.025 (≈ 0.0617 µM) | 0.025 (≈ 0.0617 µM) | 0.049 (≈ 0.121 µM) | 0.004 (≈ 0.00986 µM) | 0.195 (≈ 0.481 µM) | 0.195 (≈ 0.481 µM) | 0.098 (≈ 0.242 µM) | 0.049 (≈ 0.121 µM) |  |  |  |  | 27 | 18 | 3100 | 18900 | 0.098 (≈ 0.242 µM) | 0.12 (≈ 0.296 µM) | MIC90 (Moraxella catarrhalis [34]): 0.03 µg/mL (≈ 0.074 µM); MIC50 (Streptococcus pneumoniae [28]): 0.03 µg/mL (≈ 0.074 µM); MIC50 (Klebsiella pneumoniae [35]): 0.06 µg/mL (≈ 0.148 µM); MIC90 (Klebsiella pneumoniae [35]): 0.12 µg/mL (≈ 0.296 µM); MIC50 (Moraxella catarrhalis [36]): 0.015 µg/mL (≈ 0.037 µM); MIC50 (Pseudomonas aeruginosa [37]): 8 µg/mL (≈ 19.7 µM); MIC90 (Pseudomonas aeruginosa [37]): 64 µg/mL (≈ 158 µM); half-life [32]: 23 min; half-life [33]: 16 min
